Source: US9782400B2, “Oncogenic ROS1 and ALK kinase inhibitor” (Macau University of Science and Technology, priority 2015, dated 2017)

Experiments:
HCC78 NSCLC cells = assay: MTT assay, cell viability of HCC78 cells; format: cell-based
Method: (§1) To show the highly cytotoxic and selective properties of the present compound of Formula (Ic), HCC78 NSCLC cells and normal lung epithelial cells (BEAS-2B) were treated with the compound of Formula (Ic) and respective effects were observed. HCC78 NSCLC cells are non-small cell lung cancer cells with a ROS1 gene fusion. HCC78 cells were obtained from the American Type Culture Collection (ATCC) and cultured in environment of 5% CO2 at 37° C. in RPMI-1640 medium supplemented with 10% fetal bovine serum (FBS), 100 units/mL penicillin, and 100 μg/mL streptomycin. The compound of Formula (Ic) was dissolved in DMSO. Using a MTT assay, 3000 HCC78 or BEAS-2B cells were seeded on 96-well plates, cultured overnight for cell adhesion, and treated with DMSO or various concentrations of the compound of Formula (Ic) for 72 h. Three independent tests were performed. 10 μL of MTT (5 mg/mL; Sigma) were added to each well, and incubation continued for another 4 h. Then the dark blue crystals were dissolved in 100 μL of the resolved solution (10% SDS and 0.1 mM HCL). The absorbance was measured at 570 nm by a microplate reader (Tecan, Morrisville, N.C., USA).
(§2) The cell viability was calculated relative to untreated controls, with results based on at least three independent experiments. […] The compound of Formula (Ic) exerts a 3.75-fold cytotoxicity towards cancer cells than normal healthy cells.

BEAS-2B cells [1] = assay: MTT assay, normal lung epithelial cells (Example 1A); format: cell-based; conditions: Homo sapiens, 72 h treatment
Method: as §1, §2

H2228 NSCLC cells = assay: MTT assay, cell viability of H2228 cells; format: cell-based; conditions: Homo sapiens, NCI-H2228, 72 h treatment
Method: (§3) H2228 (which express EML4-ALK fusion kinases, namely variant 3) and BEAS-2B cells were obtained from the American Type Culture Collection and cultured in environment of 5% CO2 at 37° C. in RPMI-1640 medium supplemented with 10% fetal bovine serum (FBS), 100 units/mL penicillin, and 100 μg/mL streptomycin.
(§4) The cytotoxicity effect of the compound of Formula (Ic) on H2228 NSCLC cells (harboring ALK fusion) and human bronchial epithelial (BEAS-2B) have been analyzed. H2228 cells were cultured in 96-well plates at a density of 3×10^3 cells/well, and were cultured overnight for cell adhesion. Then the cells were treated with DMSO or various concentrations of the compound of Formula (Ic) for 72 h. To each well 10 μL MTT (5 mg/mL) (Sigma) was added and the cells were incubated for another 4 h at 37° C., followed by adding 100 μL acidic isopropanol (10% SDS, and 0.01 mol/L HCl). Finally, the optical density (OD) of each well was measured at 570 nm by the Microplate Reader (Epoch, Winooski, USA). The cell viability was calculated relative to untreated controls, with results based on at least three independent experiments.

BEAS-2B cells [2] = assay: MTT assay, human bronchial epithelial cells (Example 2A); format: cell-based; conditions: 72 h treatment
Method: as §3, §4

HCC78 cells = assay: Apoptosis assay (Annexin-V FITC/PI, fluorescence images and flow cytometry) in HCC78 cells; format: cell-based; conditions: 72 h
Method: HCC78 cells (1.0×10^5 cells/well) were allowed to attach to a 6-well plate for 24 h, and the cells were treated with the various concentrations of the compound of Formula (Ic) for additional 72 h. At the end of incubation, the cells were harvested by trypsinization and washed twice with ice-cold PBS. After centrifugation and removal of the supernatants, cell pellets were resuspended in 100 μL 1× Annexin-binding buffer, 2 μL Annexin-V FITC and 2 μL PI (100 μg/ml) were added and incubated in the dark at room temperature for 15 min before further addition of 400 μL of 1× Annexin-binding buffer. The stained cells were analyzed quantitatively using a flow cytometer (BD Biosciences, San Jose, Calif., USA). […] Such cell morphology indicates apoptosis.

ROS1 fusion kinase = assay: Western blot of ROS1 phosphorylation and downstream signaling in HCC78 cells; format: cell-based; conditions: HCC78 cells, 1.25, 2.5, 5 μM, 72 h
Method: The cells were planted on 6-well plate, allowed to attach for 24 h, and treated with the various concentrations of the compound of Formula (Ic) for 72 h. Cells were washed twice with cold PBS then lysed in RIPA lysis buffer containing protease and phosphatase inhibitors. Protein concentration of the cell lysates was measured using the Bio-Rad protein Assay kit (Bio-Rad, 7 Philadelphia, Pa., USA). After equalizing the protein concentrations of the samples, 5× laemmli buffer was added and the samples were boiled at 100° C. for 5 min. Equal amounts of protein samples (30 μg) were subjected to SDS-PAGE of a 10% gel. The separated proteins were transferred to a nitrocellulose (NC) membrane, which was then exposed to 5% non-fat dried milk in TBS containing 0.1% Tween (0.1% TBST) for 1 h at room temperature, followed by overnight incubation at 4° C. with primary antibodies to GAPDH, phospho-AKT, AKT, phospho-ROS1, ROS1, phospho-ERK, ERK, phospho-STAT3, STAT3. After washing three times by TBST (5 mins/time), the membranes were incubated for 1 h at room temperature with the secondary fluorescent antibodies (1:10000 dilutions) to rabbit or mouse. The signal intensity of the membranes was detected by an LI-COR Odessy scanner (Belfast, Me., USA).

H2228 cells [3] = assay: Apoptosis assay (Annexin-V FITC/PI flow cytometry) in H2228 cells; format: cell-based; conditions: 48 h
Method: H2228 cells (1.0×10^5 cells/well) were allowed to attach in a 6-well plate for 24 h. The cells were treated with various concentrations of the compound of Formula (Ic), namely 1.25, 2.5 and 5 μM, for 48 h. Subsequently, cells were trypsinized, washed with PBS twice, then the cells were resuspended in a total volume of 100 μL binding buffer with 2 μL Annexin-V FITC and 5 μL propidine iodide (PI). Finally, the cells were gently mixed and incubated in the dark at room temperature for 15 min, before further addition of 400 μL of 1× Annexin-binding buffer, the number of apoptotic cells was quantified using a Flow Cytometer (BD Biosciences, San Jose, Calif., USA) within 1 h. Data were analyzed by Flow Jo software.

H2228 cells [4] = assay: Colony formation assay in H2228 cells; format: cell-based; conditions: 14 days
Method: H2228 cells were seeded to six-well plate (1000/well). Then cells were exposed to various doses of the compound of Formula (Ic), namely 1.25, 2.5 and 5 μM. After 14 days, colonies were fixed with 4% paraformaldehyde for 15 min and stained with crystal violet for 10-15 min. Finally, the staining solution was slowly washed off with water and the cells were air dried. Clones with more than 50 cells were counted under a microscope.

ALK fusion kinase = assay: Western blot of ALK phosphorylation and downstream signaling in H2228 cells; format: cell-based; conditions: H2228 cells, 1.25, 2.5, 5 μM
Method: Equal amounts of the protein samples (20-40 μg per lane) were separated on a 10% SDS-PAGE gel, then proteins were transferred onto Nitrocellulose (NC) membrane at 300 mA for 2.5 hours at 4° C., the membranes was probed with primary antibodies overnight at 4° C. which was then exposed to 5% non-fat dry milk in TBST for 1 h at room temperature with constant agitation and, then, rabbit or mouse fluorescent antibodies (1:1000) were added to the membrane at room temperature for 1 h. Visualization was performed using a LI-COR Odessy scanner (Belfast, Me., USA). All primary antibodies were diluted 1:1000, while their recommended secondary antibodies were diluted 1:10000.

ROS1-positive NSCLC = conditions: NSCLC patients harboring ROS1 rearrangements; cited from earlier work

Structure (SMILES)	fold cytotoxicity towards cancer cells than normal healthy cells (HCC78 NSCLC cells; HCC78 versus BEAS-2B, 72 h)	IC50 (HCC78 NSCLC cells; Homo sapiens, HCC78 cells, MTT, 72 h treatment)	IC50 (BEAS-2B cells [1])	IC50 (H2228 NSCLC cells)	IC50 (BEAS-2B cells [2])	cell morphology indicating apoptosis (fluorescence images) (HCC78 cells; HCC78 cells, 2.5 μM)	induction of apoptosis (flow cytometry) (HCC78 cells; HCC78 cells, 1.25, 2.5, 5 μM)	ROS1 phosphorylation and downstream signaling involving Erk1/2, STAT3 and AKT (ROS1 fusion kinase)	induction of apoptosis (flow cytometry) (H2228 cells [3]; H2228 cells, 1.25, 2.5, 5 μM)	level of cell apoptosis compared with control group (H2228 cells [3]; H2228 cells, concentration of at least 5 μM)	formation of H2228 cell colonies (H2228 cells [4]; 5 μM)	formation of H2228 cell colonies (H2228 cells [4]; 1.25, 2.5, 5 μM)	ALK phosphorylation and downstream PI3K/AKT, MEK/ERK and JAK/STAT3 signaling pathways (ALK fusion kinase)	median progression-free survival (ROS1-positive NSCLC)	objective response rate (ROS1-positive NSCLC)
COc1ccc(CNC(=O)Cn2nc(-c3ccccc3)c3cnc4ccccc4c32)cc1 [compound of Formula (Ic)]	3.75 fold	1.62 µM	6.08 µM	2.71 ± 0.92 µM	6.51 ± 1.08 µM	detach from the surface and are small	induction of apoptosis on HCC78 cells in a concentration dependent manner	dose-dependent decrease	induction of apoptosis of H2228 cells in a concentration-dependent manner	significant levels of cell apoptosis	no visible colonies	inhibited the formation of H2228 cell colonies in a dose-dependent manner	significant suppression		
C[C@@H](Oc1cc(-c2cnn(C3CCNCC3)c2)cnc1N)c1c(Cl)ccc(F)c1Cl [crizotinib]														19.2 months	72%
